According to the supplement of paper PMC10307832:

Assays:
Assay in all cases: relative viability (nuclei count vs DMSO), 5 days (fraction); higher = more cells survive
[1] = compound: CC(C)N(CCCNC(=O)Nc1ccc(C(C)(C)C)cc1)C[C@H]1O[C@@H](n2ccc3c(N)ncnc32)[C@H](O)[C@@H]1O + CS(=O)(=O)N1CCN(Cc2cc3nc(-c4cccc5[nH]ncc45)nc(N4CCOCC4)c3s2)CC1 [Pictilisib] (partner 1 µM)
Procedure, shortened: (§1)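 Each reported value is a median over duplicate plates. It expresses relative viability: treated-well nuclei count divided by vehicle-well nuclei count. Lung cancer cell lines in 1536-well plates were dosed by pin tool a day after seeding, alone with one drug or with a fixed anchor-drug dose plus five library-drug doses (not always all listed) in √10 steps, and nuclei were counted after 5 days.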

[2] = compound: CC(C)N(CCCNC(=O)Nc1ccc(C(C)(C)C)cc1)C[C@H]1O[C@@H](n2ccc3c(N)ncnc32)[C@H](O)[C@@H]1O + O=C(CCCCCCC(=O)Nc1ccccc1)NO [Vorinostat] (partner 1 µM)
Procedure, shortened: as §1

Shikonin + Phenformin = compound: CC(C)=CC[C@@H](O)C1=CC(=O)c2c(O)ccc(O)c2C1=O [Shikonin] + N=C(N)NC(=N)NCCc1ccccc1 [Phenformin] (partner 250 µM)
Procedure, shortened: as §1

[3] = compound: CC(C)N(CCCNC(=O)Nc1ccc(C(C)(C)C)cc1)C[C@H]1O[C@@H](n2ccc3c(N)ncnc32)[C@H](O)[C@@H]1O + CC(=O)Nc1cccc(-n2c(=O)n(C3CC3)c(=O)c3c(Nc4ccc(I)cc4F)n(C)c(=O)c(C)c32)c1 [Trametinib] (partner 0.02 µM)
Procedure, shortened: as §1

Cell Line	relative viability ([1]; first compound 0.08 µM)	relative viability ([1]; first compound 0.253 µM)	relative viability ([1]; first compound 0.8 µM)	relative viability ([1]; first compound 2.53 µM)	relative viability ([1]; first compound 8 µM)	relative viability ([2]; first compound 0.08 µM)	relative viability ([2]; first compound 0.253 µM)	relative viability ([2]; first compound 0.8 µM)	relative viability ([2]; first compound 2.53 µM)	relative viability ([2]; first compound 8 µM)	relative viability (Shikonin + Phenformin; first compound 0.01 µM)	relative viability (Shikonin + Phenformin; first compound 0.1 µM)	relative viability (Shikonin + Phenformin; first compound 0.3162 µM)	relative viability (Shikonin + Phenformin; first compound 1 µM)	relative viability ([3]; first compound 0.08 µM)	relative viability ([3]; first compound 0.253 µM)	relative viability ([3]; first compound 0.8 µM)	relative viability ([3]; first compound 2.53 µM)	relative viability ([3]; first compound 8 µM)
NCI-H358	0.356	0.335	0.317	0.359	0.342	0.725	0.629	0.721	0.714	0.613	0.289	0.387	0.329	0.37	0.135	0.137	0.132	0.13	0.138
NCI-H441	0.442	0.423	0.361	0.539	0.47	0.811	0.641	–	0.784	0.654	0.941	1.03	0.761	0.815	0.407	0.432	–	0.498	0.474
NCI-H460	0.305	0.391	0.335	0.381	0.38	0.719	0.727	0.746	0.701	0.734	0.515	0.64	0.51	0.474	0.103	0.0737	0.0752	0.127	0.129
NCI-H520	0.273	0.247	0.215	0.282	0.301	0.849	0.711	0.801	0.753	0.843	0.504	0.809	0.567	0.6	0.681	0.513	0.599	0.667	0.695
NCI-H596	0.388	0.412	0.173	0.355	0.414	0.601	0.427	0.39	0.674	0.714	0.798	0.858	0.893	0.897	0.858	0.759	0.842	0.753	0.765
NCI-H647	0.406	–	0.403	0.45	0.372	0.415	0.549	0.472	0.598	0.518	0.572	0.677	0.477	0.538	0.435	0.368	0.478	0.467	0.432
NCI-H650	0.807	0.907	0.887	0.867	0.824	0.414	0.444	0.459	0.426	0.401	0.462	0.462	0.447	0.426	0.859	1.06	0.875	1.03	0.994
NCI-H661	0.542	0.281	0.428	0.376	0.422	0.77	0.834	0.812	0.809	0.785	0.251	0.292	0.275	0.291	0.544	0.551	0.551	0.675	0.619
NCI-H727	0.358	0.375	0.397	0.458	0.331	1.12	1.23	1.16	1.04	1.17	0.523	0.604	0.579	0.543	0.36	0.424	0.416	0.349	0.396
NCI-H838	0.328	0.372	0.425	0.473	0.494	0.683	0.744	0.784	0.755	0.672	0.547	0.722	0.608	0.578	0.501	0.328	0.464	0.559	0.529
NCI-H1355	0.376	0.337	–	0.518	0.404	0.592	0.632	0.529	0.642	0.575	0.438	0.483	0.46	0.476	0.419	0.416	0.388	0.458	0.38
NCI-H1395	0.595	0.55	–	0.59	0.738	0.727	0.58	0.427	0.638	0.786	0.42	0.484	0.419	0.459	0.956	0.986	0.979	1.01	1.04
NCI-H1437	0.362	0.358	0.526	0.428	0.441	0.8	0.799	0.759	0.791	0.759	0.299	0.338	0.337	0.321	0.472	0.521	0.496	0.428	0.45
NCI-H1650	0.55	0.52	–	0.56	0.624	0.451	0.608	0.485	0.474	0.444	0.443	0.488	0.335	0.254	0.686	0.521	0.219	0.645	0.441
